The text below walks through data of patent US8871783B2, “Substituted 2-aza-bicyclo[2.2.1]heptane-3-carboxylic acid (cyano-methyl)-amides inhibitors of cathepsin C” (Boehringer Ingelheim International GmBh, priority 2013, dated 2014).

Chain of recombinant human DPPI (P53634 231-394): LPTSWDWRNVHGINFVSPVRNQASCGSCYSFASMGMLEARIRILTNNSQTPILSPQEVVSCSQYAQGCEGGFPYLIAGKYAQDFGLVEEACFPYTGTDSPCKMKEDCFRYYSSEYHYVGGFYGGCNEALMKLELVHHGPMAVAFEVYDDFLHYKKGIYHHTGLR
Chain of recombinant human DPPI (P53634 395-463): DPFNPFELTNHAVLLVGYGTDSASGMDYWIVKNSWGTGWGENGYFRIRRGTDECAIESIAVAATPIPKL
Chain of recombinant human DPPI (P53634 25-134): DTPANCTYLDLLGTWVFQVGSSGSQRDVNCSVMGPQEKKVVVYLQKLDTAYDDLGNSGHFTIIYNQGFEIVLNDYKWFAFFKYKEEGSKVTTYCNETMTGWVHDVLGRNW

The assay concerns the target recombinant human DPPI (Homo sapiens (Human), UniProt P53634). Description: Inhibition of Human DPPI (Cathepsin C). The format is biochemical. The following applies: substrate Gly-Arg-AMC 50 μM, MES buffer pH 6.0, fluorescence. An excerpt:
Inhibition of Human DPPI (Cathepsin C)
Materials: Microtiterplates (Optiplate-384 F) were purchased from PerkinElmer (Prod. No. 6007270). The substrate Gly-Arg-AMC was from Biotrend (Prod.-No. 808756 Custom peptide). Bovine serum albumin (BSA; Prod. No. A3059) and Dithiothreitol (DTT; Prod. No D0632) were from Sigma. TagZyme buffer was from Riedel-de-Haen (Prod.-No. 04269), NaCl was from Merck (Prod.-No. 1.06404.1000) and morpholinoethane sulfonic acid (MES), was from Serva (Prod.-No. 29834). The DPP1 inhibitor Gly-Phe-DMK was purchased from MP Biomedicals (Prod.-No. 03DK00625). The recombinant human DPPI was purchased from Prozymex. All other materials were of highest grade commercially available.
The following buffers were used: MES buffer: 25 mM MES, 50 mM NaCl, 5 mM DTT, adjusted to pH 6.0, containing 0.1% BSA; TAGZyme Buffer: 20 mM NaH2PO4, 150 mM NaCl adjusted to pH 6.0 with HCl
Assay conditions: The recombinant human DPPI was diluted in TAGZyme buffer to 1 U/ml (38.1 μg/ml, respectively), and then activated by mixing in a 1:2 ratio with a Cysteamine aqueous solution (2 mM) and incubating for 5 min at room temperature.
Five uL test compound (final concentration 0.1 nM to 100 μM) in aqua bidest (containing 4% DMSO, final DMSO concentration 1%) were mixed with 10 μL of DPPI in MES buffer (final concentration 0.0125 ng/μL) and incubated for 10 min. Then, 5 μL of substrate in MES buffer (final concentration 50 μM) were added. The microtiter plates were then incubated at room temperature for 30 min. Then, the reaction was stopped by adding 10 μL of Gly-Phe-DMK in MES-buffer (final concentration 1 μM). The fluorescence in the wells was determined using a Molecular Devices SpectraMax M5 Fluorescence Reader (Ex 360 nm, Em 460 nm) or an Envision Fluorescence Reader (Ex 355 nm, Em 460 nm).
Each assay microtiter plate contained wells with vehicle controls (1% DMSO in bidest+0.075% BSA) as reference for non-inhibited enzyme activity (100% Ctl; high values) and wells with inhibitor (Gly-Phe-DMK, in bidest+1% DMSO+0.075% BSA, final concentration 1 μM) as controls for background fluorescence (0% Ctl; low values).
The analysis of the data was performed by calculating the percentage of fluorescence in the presence of test compound in comparison to the fluorescence of the vehicle control after subtracting the background fluorescence using the following formula: (RFU(sample)−RFU(background))*100/(RFU(control)−RFU(background)) […]
One may read the Ki as the equilibrium dissociation constant of an inhibitor or competing ligand from its target. Consider `N#Cc1ccc(-c2ccc(C[C@@H](C#N)NC(=O)[C@H]3N[C@@H]4CC[C@H]3C4)s2)cc1F` [Example 1], for which the Ki amounted to 13.7 nM.
The figure for `CS(=O)(=O)c1ccc(-c2ccc(C[C@@H](C#N)NC(=O)[C@H]3N[C@@H]4CC[C@H]3C4)s2)cc1` [Example 2] is 17.3 nM; for `CN1C(=O)Cc2ccc(-c3ccc(C[C@@H](C#N)NC(=O)[C@H]4N[C@@H]5CC[C@H]4C5)s3)cc21` [Example 3] it is 3.2 nM.
The figure for `CN1C(=O)C(=O)c2ccc(-c3ccc(C[C@@H](C#N)NC(=O)[C@H]4N[C@@H]5CC[C@H]4C5)s3)cc21` [Example 4] is 2.1 nM; for `CN1C(=O)Cc2ccc(-c3ccc(C[C@@H](C#N)NC(=O)[C@H]4N[C@@H]5CC[C@H]4C5)o3)cc21` [Example 5] it is 176 nM; for `N#CC(Cc1cc2cc(Br)ccc2o1)NC(=O)[C@H]1N[C@@H]2CC[C@H]1C2` (stereo partly drawn) [Example 6] it is 64.1 nM.
In the case of `N#Cc1ccc(-c2ccc3oc(CC(C#N)NC(=O)[C@H]4N[C@@H]5CC[C@H]4C5)cc3c2)cc1F` (stereo partly drawn) [Example 7] it was 39.3 nM.
For the compound `CN1C(=O)Cc2ccc(-c3ccc4oc(CC(C#N)NC(=O)[C@H]5N[C@@H]6CC[C@H]5C6)cc4c3)cc21` (stereo partly drawn) [Example 8], the Ki turned out to be 104 nM.
The figure for `N#CC(Cc1cc2cc(-c3ccccc3)ccc2o1)NC(=O)[C@H]1N[C@@H]2CC[C@H]1C2` (stereo partly drawn) [Example 9] is 62 nM; for `N#CC(Cc1cc2cc(Br)ccc2s1)NC(=O)[C@H]1N[C@@H]2CC[C@H]1C2` (stereo partly drawn) [Example 10] it is 35.8 nM.
In the case of `N#CC(Cc1cc2cc(-c3ccccc3)ccc2s1)NC(=O)[C@H]1N[C@@H]2CC[C@H]1C2` (stereo partly drawn) [Example 11] it was 72.8 nM; in that of `CN1C(=O)Cc2ccc(-c3cnc(CC(C#N)NC(=O)[C@H]4N[C@@H]5CC[C@H]4C5)s3)cc21` (stereo partly drawn) [Example 12], 14.9 nM; in that of `CN1C(=O)Cc2ccc(-c3csc(CC(C#N)NC(=O)[C@H]4N[C@@H]5CC[C@H]4C5)c3F)cc21` (stereo partly drawn) [Example 13], 61.7 nM.
The figure for `CC(=O)c1ccc(-c2ccc(C[C@@H](C#N)NC(=O)[C@H]3N[C@@H]4CC[C@H]3C4)s2)s1` [Example 14] is 13.4 nM; for `CN1C(=O)Cc2ccc(-c3csc(CC(C#N)NC(=O)[C@H]4N[C@@H]5CC[C@H]4C5)c3)cc21` (stereo partly drawn) [Example 15] it is 41.9 nM.
As for `CCn1cc(-c2ccc(C[C@@H](C#N)NC(=O)[C@H]3N[C@@H]4CC[C@H]3C4)s2)cn1` [Example 16], the inhibitory constant (Ki) came to 17.1 nM.
In the case of `N#C[C@H](Cc1ccc(-c2ccc3c(c2)NC(=O)C3)s1)NC(=O)[C@H]1N[C@@H]2CC[C@H]1C2` [Example 17] it was 4.2 nM.
For the compound `N#C[C@H](Cc1ccc(-c2cnn(CC3CCOCC3)c2)s1)NC(=O)[C@H]1N[C@@H]2CC[C@H]1C2` [Example 18], the Ki turned out to be 27 nM.
In the case of `CN1CCC(c2ccc(C[C@@H](C#N)NC(=O)[C@H]3N[C@@H]4CC[C@H]3C4)s2)CC1` [Example 20] it was 37.9 nM; in that of `CN1C(=O)Cc2ccc(-c3cc(F)c(CC(C#N)NC(=O)[C@H]4N[C@@H]5CC[C@H]4C5)s3)cc21` (stereo partly drawn) [Example 22], 2.2 nM.
The figure for `CN1CCN(S(=O)(=O)c2ccc(-c3ccc(C[C@@H](C#N)NC(=O)[C@H]4N[C@@H]5CC[C@H]4C5)s3)cc2)CC1` [Example 23] is 2.9 nM.
For the compound `CC1(C)OC(=O)c2cc(-c3ccc(C[C@@H](C#N)NC(=O)[C@H]4N[C@@H]5CC[C@H]4C5)s3)ccc21` [Example 24], the Ki was determined as 21.9 nM.
The figure for `CC1(C)OC(=O)c2ccc(-c3ccc(C[C@@H](C#N)NC(=O)[C@H]4N[C@@H]5CC[C@H]4C5)s3)cc21` [Example 25] is 4 nM; for `CS(=O)(=O)c1cccc(-c2ccc(C[C@@H](C#N)NC(=O)[C@H]3N[C@@H]4CC[C@H]3C4)s2)c1` [Example 26] it is 16.7 nM.
